Measurements reported in paper PMC4721545 (Bioscience Reports, 2015).
Where two headings read alike, the source gives them in different places.

Legend:
primary neurons [1] = assay: Neurite outgrowth of primary neurons (MAP-2 staining, Image J); format: cell-based, mouse; conditions: PBS control 4.1 μm; P<0.01
Experimental: (§1) Embryonic 18-day-mouse cortex (Shanghai SLAC Laboratory Animal Co. Ltd) were dissected under a microscope and then triturated into the suspension in Neurobasal-A-medium (Gibco) supplemented with 2% B27 (Gibco), 100 units/ml penicillin and 100 μg/ml streptomycin (Gibco). The cells were then plated on cover slips coated with poly-D-lysine (0.1 mg/ml; Sigma) at a density of 1×10^6 cells per cm^2 at 37°C in a humidified cell incubator under a 95%/5% (v/v) mixture of air and CO2, with the cell media being replaced every 48 h. After 7 days, neurons were incubated with different conditioned medium.
(§2) Fluorescent photomicrographs of neurons with microtubule-associated protein-2 (MAP-2) staining or photomicrographs of BV-2 cells under inverted microscope were captured with a 20× objective and a digital camera of Olympus microscope. Images were acquired from randomly selected fields for each group. The length of the longest neurite outgrown or dendritic formation in the cell body was measured by an investigator blinded to the experimental groups using a public-domain image-processing program (Image J, http://rsb.info.nih.gov/ij). Average lengths of neuronal neurite or dendritic formation were used for quantification.

C57BL/6 mice = assay: Test of vasodilation in naive mice; format: in vivo; conditions: healthy mice, 800 μg/mouse i.p., after 30 and 60 min
EAE in C57BL/6 mice [2] = test system: EAE in C57BL/6 mice; set-up: method as in PMID 24749492; conditions: previous studies; cited from earlier work
BV-2 microglia [3] = assay: MTT cell viability assay, BV-2 microglia; format: cell-based; conditions: 24 h
Experimental: (§3) The BV-2 immortalized microglial cell line was purchased from ShenKe Biological Technology Co. and cultured in Dulbecco's modified Eagle's medium (DMEM; Gibco), supplemented with 10% FBS (Gibco), 100 units/ml penicillin and 100 μg/ml streptomycin (Gibco) at 37°C in a humidified cell incubator under a 95%/5% (v/v) mixture of air and CO2. Cells were plated on a 96-well plate at a density of 1.0×10^6 /ml (200 μl/well), on a 24-well plate at 1.0×10^6/ml (500 μl/well) and at 0.2×10^6 /ml (500 μl/well) for different experiments.
(§4) Cell viability of BV-2 microglia and primary neurons was detected by MTT assay. In brief, 100 μl of MTT solution (0.5 mg ml^−1, Duchefa) was added to cultured cells and incubated for an additional 4 h at 37°C, until the medium turned purple. Absorbance at 570 nm was measured by a microplate reader after addition of 100 μl DMSO. Each experiment was performed in triplicate and repeated three times with separate cell preparations. Results were expressed as a percentage of the control value at 570 nm.

ROCK I = target: T1, ROCK I (Homo sapiens, UniProt Q13464); assay: ROCK inhibition by mobility shift assay, ROCK I; format: biochemical; conditions: ATP con. 3.6 μM
T1 construct: purchased Carna
Experimental: (§5) Staurosporine (Sigma) was used as positive control and saline was used as negative control.
(§6) DMSO (100 μl) was added to two empty wells for no compound control and no enzyme control in the same 96-well plate. Mobility shift assay was performed according to the manufacturer's protocol. […] The mixtures (5 μl) were incubated with 2.5× enzyme solution (10 μl) in 384-well plate at room temperature for 10 min and control was performed by adding 5 μl of kinase buffer.
(§7) Percentinhibition=max−conversion/max−min×100
(§8) where max stands for DMSO control; min stands for low control.

primary neurons [4] = assay: LDH release cell death assay, primary neurons; format: cell-based; conditions: 24 h
Experimental: as §1
(§9) The death of BV-2 microglia and primary neurons was measured by LDH release in the culture medium. Levels of LDH release in supernatants of cultured cells were measured using the cytotoxicity detection kit (Promega) according to the manufacturer's protocol. Maximum LDH release (A570) was determined following the treatment of cells with lysis buffer and considered as control value (100% LDH release). Data were expressed as a percentage of the control value.

BV-2 microglia [5] = assay: LDH release cell death assay and morphology, BV-2 microglia; format: cell-based; conditions: for BV-2 microglia cell death / morphology: 75 μg/ml and 200 μg/ml, 48 h culture; for death of BV-2 microglia (LDH release): 24 h
Experimental: as §3, §9

ROCK II = target: T2, ROCK II (Homo sapiens, UniProt O75116); assay: ROCK inhibition by mobility shift assay, ROCK II; format: biochemical; conditions: ATP con. 5.3 μM
T2 construct: purchased Carna
Experimental: as §5, §6, §7, §8

[6] = test system: iNOS and Arg-1 expression in brain; assay: Western blot of iNOS and Arg-1 in brain of EAE mice (M1/M2 polarization); format: in vivo, mouse; conditions: day 28 p.i.
Experimental: (§10) Mice were divided into three groups: Fasudil-treated group (n=8), FSD-C10-treated group (n=8) and double-distilled water (ddH2O) EAE control group (n=9). […] Mice were i.p. injected with 800 μg/200 μl/daily from day 3 to day 27 p.i. Mice that received the same volume of ddH2O i.p. served as control. Protein from brains was homogenized on ice with an extraction kit and protein concentration was determined by a Bradford protein assay. Protein extracts (30 μg) were separated by SDS/PAGE and transferred on to a PVDF membrane (Immobilon-P; Millipore Corp.). The membranes were then incubated with anti-GDNF (glial cell line-derived neurotrophic factor; 1:1000, Epitomics), anti-BDNF (brain-derived neurotrophic factor; 1:1000, Promega), anti-NT-3(neurotrophin-3; 1:1000, Epitomics), anti-Nogo(1:1000, Epitomics), anti-iNOS (inducible nitric oxide synthase) (1:1000, Cell Signaling Technology) […], anti-arginase-1 ([…]) (1:1000, BD Bioscience) and anti-β-actin (1:10000, Cell Signaling Technology) for overnight at 4°C. Bands were visualized by horseradish peroxidase (HRP-) conjugated secondary antibodies and ECL kit under ECL system (GE Healthcare Life Sciences).

primary neurons [7] = assay: MTT cell viability assay, primary neurons; format: cell-based, mouse; conditions: 24 h
Experimental: as §1, §4

EAE in C57BL/6 mice [8] = assay: Chronic EAE induced with MOG35-55, clinical score and body weight; format: in vivo, mouse; conditions: 800 μg/200 μl daily i.p., day 3 to 27 p.i.; for mean clinical score: EAE control 1.29±1.08, P<0.001; for maximum clinical score: EAE control 2.78; for body weight loss vs EAE mice: P<0.001
Experimental: Female C57BL/6 mice (8–10 weeks old and 18–20 g of body weight) were purchased from Vital River Laboratory Animal Technology Co. Ltd. All experiments were conducted in accordance with the guidelines of the International Council for Laboratory Animal Science. The study was approved by the Ethics Committee of Shanxi Datong University. […].
Mouse myelin oligodendrocyte glycoprotein peptide 35–55 (MOG35–55, MEVGW […]) was produced in an automatic synthesizer (CL. Bio-Scientific Company). The purity of the peptide was >95% as determined by HPLC. Chronic EAE was induced by subcutaneous immunization on the upper dorsal flanks with 300 μg of MOG35–55 in Freund's complete adjuvant (Sigma) supplemented with 3 mg/ml of M. Tuberculosis H37Ra (BD Difco; […]). Mice were injected intraperitoneally (i.p.) with 500 ng of pertussis toxin (Enzo Life Sciences) on days 0 and 2 post-immunization (p.i.). Animals were weighed and evaluated for clinical score every other day in a blinded fashion by at least two investigators. Clinical score of EAE was graded according to the following criteria: 0: healthy; 1: limp tail; 2: ataxia and/or paresis of hind limbs; 3: paralysis of hind limbs and/or paresis of forelimbs; 4: tetraparalysis; and 5: moribund or death. When the clinical score of EAE reaches 3, we give suitable care including softening of food with water in dish and additional nutrients such as egg, making mice easy to obtain food and nutrition.
Mice were divided into three groups: Fasudil-treated group (n=8), FSD-C10-treated group (n=8) and double-distilled water (ddH2O) EAE control group (n=9). […] Mice were i.p. injected with 800 μg/200 μl/daily from day 3 to day 27 p.i. Mice that received the same volume of ddH2O i.p. served as control.

[9] = test system: BDNF, GDNF, NT-3, Nogo protein in brain; assay: Western blot of neurotrophic factors and Nogo in brain of EAE mice; format: in vivo, mouse; conditions: day 28 p.i., vs control EAE mice; for expression of BDNF protein in brain / expression of GDNF protein in brain / expression of NT-3 protein in brain: P<0.05
Experimental: as §10

BV-2 microglia [10] = assay: Dendritic formation of BV-2 microglia (Image J); format: cell-based; conditions: for breakage of dendritic branches on BV-2 microglia: 75 and 200 μg/ml; for dendritic length of BV-2 microglia (mean): PBS control 2.94 μm, P<0.001
Experimental: as §3, §2

mice = format: in vivo; conditions: within 2 h
Experimental: […]. […] Given that FSD-C10 was well tolerant in vivo, further pre-clinical studies are valuable for the treatment of MS.
[…]. […] TEXT PRINTED IN THE PICTURE: (b) Fasudi: Mortality (%): 0% (800 μg /mouse/day); Mortality (%): 33% (1600 μg /mouse/day); Mortality (%): 67% (2000 μg /mouse/day) | (b) FSD-C10: Mortality (%): 0% (800 μg /mouse/day); Mortality (%): 0% (1600 μg /mouse/day); Mortality (%): 0% (2000 μg /mouse/day)

T2 sequence (O75116 whole entry): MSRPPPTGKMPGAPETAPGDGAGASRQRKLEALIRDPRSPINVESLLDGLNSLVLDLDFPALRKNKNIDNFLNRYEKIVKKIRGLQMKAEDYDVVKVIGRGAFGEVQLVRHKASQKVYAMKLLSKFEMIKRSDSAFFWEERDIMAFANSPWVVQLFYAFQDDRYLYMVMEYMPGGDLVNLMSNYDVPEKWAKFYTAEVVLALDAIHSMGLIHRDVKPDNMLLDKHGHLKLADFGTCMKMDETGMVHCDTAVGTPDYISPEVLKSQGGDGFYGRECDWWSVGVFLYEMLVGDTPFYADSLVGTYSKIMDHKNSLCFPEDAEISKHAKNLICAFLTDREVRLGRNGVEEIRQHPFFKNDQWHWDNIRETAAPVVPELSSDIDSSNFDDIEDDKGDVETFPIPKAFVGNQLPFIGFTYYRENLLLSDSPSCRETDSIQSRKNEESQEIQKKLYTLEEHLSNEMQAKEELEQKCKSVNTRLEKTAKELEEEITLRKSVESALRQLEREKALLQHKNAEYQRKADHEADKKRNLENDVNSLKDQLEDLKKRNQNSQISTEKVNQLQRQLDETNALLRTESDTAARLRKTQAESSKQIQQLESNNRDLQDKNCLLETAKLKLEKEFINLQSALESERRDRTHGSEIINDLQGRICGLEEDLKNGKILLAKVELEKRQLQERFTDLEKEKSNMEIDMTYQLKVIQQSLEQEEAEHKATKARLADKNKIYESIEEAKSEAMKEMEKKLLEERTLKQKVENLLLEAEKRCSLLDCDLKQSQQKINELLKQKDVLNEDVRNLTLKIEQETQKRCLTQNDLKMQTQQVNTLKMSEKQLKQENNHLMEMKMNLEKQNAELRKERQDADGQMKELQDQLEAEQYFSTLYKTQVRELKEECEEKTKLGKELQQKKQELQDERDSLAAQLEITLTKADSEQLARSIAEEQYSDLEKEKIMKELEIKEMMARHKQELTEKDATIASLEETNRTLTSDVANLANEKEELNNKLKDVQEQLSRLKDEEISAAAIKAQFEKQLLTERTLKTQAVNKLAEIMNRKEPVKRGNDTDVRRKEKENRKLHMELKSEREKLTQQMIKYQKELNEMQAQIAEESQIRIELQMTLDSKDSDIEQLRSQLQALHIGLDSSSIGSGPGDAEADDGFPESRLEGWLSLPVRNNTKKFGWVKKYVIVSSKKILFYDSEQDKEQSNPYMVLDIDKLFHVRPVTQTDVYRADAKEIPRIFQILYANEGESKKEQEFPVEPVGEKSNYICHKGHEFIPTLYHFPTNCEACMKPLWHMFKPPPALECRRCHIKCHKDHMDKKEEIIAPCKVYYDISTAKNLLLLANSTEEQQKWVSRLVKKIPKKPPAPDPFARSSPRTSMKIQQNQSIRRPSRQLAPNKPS
T1 sequence (Q13464 whole entry): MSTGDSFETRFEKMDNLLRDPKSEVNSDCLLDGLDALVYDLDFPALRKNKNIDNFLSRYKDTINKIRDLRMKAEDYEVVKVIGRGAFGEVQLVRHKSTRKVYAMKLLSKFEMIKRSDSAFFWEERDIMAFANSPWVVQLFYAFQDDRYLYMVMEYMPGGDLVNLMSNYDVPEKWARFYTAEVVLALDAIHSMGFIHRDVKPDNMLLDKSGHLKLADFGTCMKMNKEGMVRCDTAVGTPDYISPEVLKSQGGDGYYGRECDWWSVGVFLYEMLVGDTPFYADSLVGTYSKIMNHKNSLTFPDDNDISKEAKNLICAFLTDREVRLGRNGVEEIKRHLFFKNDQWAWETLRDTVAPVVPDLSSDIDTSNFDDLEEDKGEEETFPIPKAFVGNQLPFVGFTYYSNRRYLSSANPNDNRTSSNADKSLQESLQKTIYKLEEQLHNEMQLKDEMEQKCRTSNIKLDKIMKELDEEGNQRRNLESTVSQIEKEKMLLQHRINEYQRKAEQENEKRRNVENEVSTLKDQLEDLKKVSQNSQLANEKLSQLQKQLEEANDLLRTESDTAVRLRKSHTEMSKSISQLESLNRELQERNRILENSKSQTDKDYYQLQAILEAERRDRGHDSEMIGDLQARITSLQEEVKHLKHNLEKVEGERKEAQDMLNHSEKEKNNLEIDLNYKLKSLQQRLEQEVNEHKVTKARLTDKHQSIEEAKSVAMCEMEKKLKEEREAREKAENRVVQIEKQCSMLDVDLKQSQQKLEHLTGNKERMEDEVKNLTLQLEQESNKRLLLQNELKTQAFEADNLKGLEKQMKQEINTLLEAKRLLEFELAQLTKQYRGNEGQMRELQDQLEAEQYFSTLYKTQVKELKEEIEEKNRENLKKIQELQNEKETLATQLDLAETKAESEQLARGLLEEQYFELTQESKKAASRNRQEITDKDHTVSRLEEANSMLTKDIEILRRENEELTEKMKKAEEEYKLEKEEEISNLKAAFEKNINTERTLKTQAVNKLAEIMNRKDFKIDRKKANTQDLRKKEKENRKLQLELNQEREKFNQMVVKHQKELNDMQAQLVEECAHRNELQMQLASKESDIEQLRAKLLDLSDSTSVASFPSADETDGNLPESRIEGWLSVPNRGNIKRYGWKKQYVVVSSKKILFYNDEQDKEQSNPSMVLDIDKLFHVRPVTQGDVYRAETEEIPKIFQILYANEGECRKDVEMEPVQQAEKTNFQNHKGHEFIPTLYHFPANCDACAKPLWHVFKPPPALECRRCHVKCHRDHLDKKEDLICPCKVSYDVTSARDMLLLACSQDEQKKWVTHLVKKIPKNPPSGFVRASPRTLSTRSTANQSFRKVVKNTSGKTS

| SMILES | neurite length of primary neurons (mean) (primary neurons [1]) [μm] | vasodilation on the foot of mice (C57BL/6 mice) | viability of BV-2 microglia (MTT) (BV-2 microglia [3]; 75 μg/ml, vs control) | viability of BV-2 microglia (MTT) (BV-2 microglia [3]; 0.6–15 μg/ml) | death of primary neurons (LDH release) (primary neurons [4]; 0.6–15 μg/ml) | BV-2 microglia cell death / morphology (BV-2 microglia [5]) | death of BV-2 microglia (LDH release) (BV-2 microglia [5]; 0.6–15 μg/ml) | Arg-1 expression in brain [6] | iNOS expression in brain [6] | viability of primary neurons (MTT) (primary neurons [7]; 75 μg/ml, vs control) | viability of primary neurons (MTT) (primary neurons [7]; 0.6–15 μg/ml) | mean clinical score (EAE in C57BL/6 mice [8]) | maximum clinical score (EAE in C57BL/6 mice [8]) | body weight loss vs EAE mice (EAE in C57BL/6 mice [8]) | expression of Nogo protein in brain [9] | expression of BDNF protein in brain [9] | expression of GDNF protein in brain [9] | expression of NT-3 protein in brain [9] | breakage of dendritic branches on BV-2 microglia (BV-2 microglia [10]) | dendritic length of BV-2 microglia (mean) (BV-2 microglia [10]) [μm] | also measured |
| --- | --- | --- | --- | --- | --- | --- | --- | --- | --- | --- | --- | --- | --- | --- | --- | --- | --- | --- | --- | --- | --- |
| O=S(=O)(c1cccc2cnccc12)N1CCC[C@H]1CCl [FSD-C10] | 10.5 | relatively weak vasodilator effect | did not lead to significant decrease | did not influence | did not influence | good cell morphology | did not influence | elevated | inhibited | did not lead to significant decrease | did not influence | 0.28±0.23 | 0.50 | less body weight loss | slightly, although not significantly, declined | significantly enhanced | significantly enhanced | significantly enhanced | did not cause significant breakage | 12.5 | clinical severity of EAE (EAE in C57BL/6 mice [2]): ameliorated; IC50 (ROCK I): 1140 nM; death of primary neurons (LDH release) (primary neurons [4]; 75 μg/ml, vs control): did not lead to significant decrease; death of BV-2 microglia (LDH release) (BV-2 microglia [5]; 75 μg/ml, vs control): did not lead to significant decrease; BV-2 cell death at higher doses with the extension of time (BV-2 microglia [5]; ≥200 μg/ml, result not shown): caused cell death; IC50 (ROCK II): 711 nM |
| Cl.O=S(=O)(c1cccc2cnccc12)N1CCCNCC1 [Fasudil, hexahydro-1-(5-isoquinolinyl-sulfonyl)-1H-1,4-diazepine monohydrochloride, reference compound] | 6.6 | obvious vasodilation | significant decrease | did not influence | did not influence | obvious cell death | did not influence | elevated | inhibited | significant decrease | did not influence | 0.04±0.07 | 0.19 | less body weight loss | slightly, although not significantly, declined | significantly enhanced | significantly enhanced | significantly enhanced | caused significant breakage | 12.5 | Mortality (%) (mice; 800 μg/mouse i.p.): 0%; Mortality (%) (mice; 1600 μg/mouse i.p.): 33%; Mortality (%) (mice; 2000 μg/mouse i.p.): 67% |
